The record followed here is patent US9765061B2, “Trail enhancers for the selective killing of cancer cells” (The Scripps Research Institute, priority 2013, dated 2017).

One experiment deals with cancer and normal cells. Description: XTT-based viability of cancer and normal cells grown 18 h (FIG. 12). The experiment is classed as cell-based. Conditions: TRAIL alone or the same doses of C12 without TRAIL. The protocol: FIG. 12. (C12) promotes the TRAIL-mediated killing of cancer cells, a), c) Western blot analysis of PARP cleavage in cancer or normal cells treated for 3 h with TRAIL, (C12) or a combination of both, as indicated, b), d) XTT-based assay monitoring the viability of cancer and normal cells grown for 18 h in media containing TRAIL and the indicated doses of (C12). Cell survival was ˜100% in control samples (untreated cells) as well as in samples incubated with TRAIL alone or the same doses of (C12) without TRAIL.
Cancer and normal cell culture. Lung cancer cell line A549 and colon cancer cell line HT29 were purchased from ATCC. Breast cancer cell line MDA-MB-468 was received from J. C. Reed (The Burnham Institute, La Jolla, Calif.). […]
Cytotoxicity was determined by using the XTT-based toxicology assay kit (Sigma, St. Louis, Miss.) in accordance with the manufacturer's instructions. For some experiments, to confirm the apoptotic nature of toxicity, cells were analyzed using protocols and instructions of the Annexin V-FITC apoptosis detection kit (Biovision, Mountain View, Calif.). In addition, caspase 3, 8 and 9 activities were determined by colorimetric assays (R&D System), and the data are expressed as fold increases compared to the values of untreated or control-treated cells (n=5).
(Tetrazolium dyes change colour on reduction, which living cells bring about.)

In experiment [1] the test system is bone marrow-derived macrophages (BMDM). Description: Responses of bone marrow-derived macrophages to AHLs (toxicity, Western blot). The experiment is classed as cell-based, mouse. How it is done: FIG. 13. AHL-mediated inhibition of inflammation-induced NF-κB signaling is sufficient for rendering tumors susceptible to TRAIL-induced apoptosis. a) Western blot analysis of PARP cleavage in cancer cells stimulated for 3 h with TRAIL or its combination with different AHLs as indicated, b) Western blot analysis of PARP cleavage as well as phosphorylated forms of eIF2α and p38 in extracts from bone marrow-derived macrophages (BMDM) stimulated with (C12) or (3-N2), i.e., (S)-(3-N2), as indicated, c) Western blot analysis of PARP cleavage and temporal profiles of IκBα expression in BMDM extracts prepared after treatment with LPS or its combination with (C12) or (3-N2). d) Inhibitory effect of (C12) and its derivatives on LPS-induced TNF production in BMDM. e) Lung cancer cells were exposed to (3-N2) (10 μM), TRAIL (0.5 ng/ml), TNF (20 ng/ml) or their combinations as indicated. After 2 h, cell lysates were prepared and analyzed by Western blot for PARP cleavage, IκBα and actin.
Mice, bone marrow-derived macrophages and other cell culture, C57BL/6 mice were purchased from the Jackson Laboratory (Bar Harbor, Me.). Bone marrow-derived macrophages (BMDM) and murine embryonic fibroblasts (MEF) were prepared by using standard protocols that were approved by the TSRI Animal Care and Use Committee. L929/NCTC clone 929 (connective tissue, mouse) cell lines were purchased from ATCC (Manassas, Va.). MEFs and L929 cell line were maintained in GM (see above). BMDM were cultured in 70% GM and 30% L929 conditioned medium. In general, cells (˜60-70% confluence) were incubated in fresh medium for 12-14 h before stimulation.
Antibodies and Western blot analysis. Anti-eIF2α, phospho-eIF2α[…](p-eIF2α), p38, p-p38 (Thr180/Tyr132), p-RelA (Ser536), p-I κB ? 32/36), PARP 20 antibodies were purchased from Cell Signaling; anti-RelA, I κB α, IκBβ were from Santa Cruz Biotechnology. Cellular extracts were prepared and analyzed by Western blot assay as previously described.^E3
Cell stimulation. In all experiments, BMDM were stimulated with LPS (100 ng/ml), AHL (10-25 μM; usually BMDM and primary macrophages were stimulated by 25 μM of C12) or their combination as indicated in the figure legends. If not indicated, cancer and normal cells were stimulated with 40 ng/ml of TNFα, 20 ng/ml TRAIL and 10 μM (in case of cancer cells) or 25 μM (in case of normal cells) of AHL.

With `CCCCCCCCCC(=O)CC(=O)N[C@H]1CCOC1=O` [Compound 1, N-(3-oxo-dodecanoyl) homoserine lactone], the Cell survival in the experiment with cancer and normal cells is listed as around 100%. Besides, the “eIF2α phosphorylation in macrophages” value in experiment [1] (Western blot, FIG. 13b) was “induced eIF2α phosphorylation in a similar fashion”. In addition, the “blocking LPS-induced re-synthesis of IκBα” value in experiment [1] (macrophages activated by LPS, FIG. 13c) is given as “equally effective”.
